Test results as given in ChEMBL document CHEMBL1201862, “PubChem BioAssay data set” (2004).
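Cells were grown in 96-well plates and exposed to each compound for 48 hours at five concentrations; endpoints were interpolated linearly between bracketing concentrations, or set to the highest concentration if not reached. GI50: concentration for 50% inhibition of growth.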 Activity calls are given as the source filed them. No stated cut-off is given here; in the data, active = GI50 up to about 1.1 µM and inactive = higher.

How the values were obtained:
Experiment in all cases: growth of human tumour cells (NCI), 48 h
LOX IMVI = tested on: LOX IMVI
SF-295 = tested on: SF-295
TK-10 = tested on: TK-10
EKVX = tested on: EKVX
SK-MEL-5 = tested on: SK-MEL-5
U-251 = tested on: U-251
HCC 2998 = tested on: HCC 2998
HOP-62 = tested on: HOP-62
SNB-19 = tested on: SNB-19
NCI-H23 = tested on: NCI-H23
IGROV-1 = tested on: IGROV-1
MDA-MB-435 = tested on: MDA-MB-435
SNB-75 = tested on: SNB-75
SR = tested on: SR
CCRF-CEM = tested on: CCRF-CEM
UACC-257 = tested on: UACC-257
MDA-N = tested on: MDA-N
786-0 = tested on: 786-0
OVCAR-8 = tested on: OVCAR-8

Compound	GI50 (LOX IMVI)	GI50 (SF-295)	GI50 (TK-10)	GI50 (EKVX)	GI50 (SK-MEL-5)	GI50 (U-251)	GI50 (HCC 2998)	GI50 (HOP-62)	GI50 (SNB-19)	GI50 (NCI-H23)	GI50 (IGROV-1)	GI50 (MDA-MB-435)	GI50 (SNB-75)	GI50 (SR)	GI50 (CCRF-CEM)	GI50 (UACC-257)	GI50 (MDA-N)	GI50 (786-0)	GI50 (OVCAR-8)
Cn1c(=O)n2n(c1=O)C([S+]([O-])c1ccccc1)C2 (configuration not stated)	38.9 µM (inactive)	> 100 µM (inactive)	> 100 µM (inactive)	> 100 µM (inactive)	> 100 µM (inactive)	> 100 µM (inactive)	> 100 µM (inactive)	> 100 µM (inactive)	> 100 µM (inactive)	> 100 µM (inactive)	32.1 µM (inactive)	> 100 µM (inactive)	> 100 µM (inactive)	38.3 µM (inactive)	20.2 µM (inactive)	> 100 µM (inactive)	> 100 µM (inactive)	> 100 µM (inactive)	> 100 µM (inactive)
CC1OC(O[C@@H]2OC=C(C=O)[C@@]3(O)CC[C@H](C)[C@@H]23)C(O)C(O)C1O (some centres not stated)	> 100 µM (inactive)	> 100 µM (inactive)	> 100 µM (inactive)	> 100 µM (inactive)	> 100 µM (inactive)	> 100 µM (inactive)	> 100 µM (inactive)	> 100 µM (inactive)	> 100 µM (inactive)	> 100 µM (inactive)	> 100 µM (inactive)	> 100 µM (inactive)	> 100 µM (inactive)	> 100 µM (inactive)	> 100 µM (inactive)	> 100 µM (inactive)	> 100 µM (inactive)	> 100 µM (inactive)	> 100 µM (inactive)
CCOC(=O)c1c(N2CCCC2)[nH]c(=O)c(C(c2ccc(N(C)C)cc2)c2c(O)c(C(=O)OCC)c(N3CCCC3)[nH]c2=O)c1O	> 100 µM (inactive)	> 100 µM (inactive)	94.2 µM (inactive)	> 100 µM (inactive)	> 100 µM (inactive)	> 100 µM (inactive)	> 100 µM (inactive)	> 100 µM (inactive)	> 100 µM (inactive)	95.5 µM (inactive)	–	> 100 µM (inactive)	48.5 µM (inactive)	> 100 µM (inactive)	> 100 µM (inactive)	> 100 µM (inactive)	> 100 µM (inactive)	> 100 µM (inactive)	> 100 µM (inactive)
[O-][n+]1ccc(NO)c2ccccc21	1.45 µM (inactive)	0.374 µM (active)	2.02 µM (inactive)	2.21 µM (inactive)	1.25 µM (inactive)	0.658 µM (active)	0.253 µM (active)	1.79 µM (inactive)	2.34 µM (inactive)	1.58 µM (inactive)	1.65 µM (inactive)	4.6 µM (inactive)	0.516 µM (active)	0.106 µM (active)	0.492 µM (active)	7.36 µM (inactive)	4.72 µM (inactive)	2.05 µM (inactive)	0.561 µM (active)
COc1ccc(CCCCNCc2cccc(CNCCCCc3ccc(OC)cc3)c2)cc1	1.6 µM (inactive)	1.93 µM (inactive)	2.07 µM (inactive)	1.81 µM (inactive)	1.66 µM (inactive)	1.85 µM (inactive)	0.308 µM (active)	2.19 µM (inactive)	1.71 µM (inactive)	1.78 µM (inactive)	1.74 µM (inactive)	1.79 µM (inactive)	1.76 µM (inactive)	1.79 µM (inactive)	1.67 µM (inactive)	2.59 µM (inactive)	2 µM (inactive)	2.1 µM (inactive)	1.8 µM (inactive)
COc1cc2cc(C(=O)N3CC(CCl)c4ccc([N+](C)(C)Cc5ccccc5[N+](=O)[O-])cc43)[nH]c2c(OC)c1OC (configuration not stated)	2.31 µM (inactive)	1.47 µM (inactive)	2.74 µM (inactive)	3.78 µM (inactive)	0.875 µM (active)	2.18 µM (inactive)	1.27 µM (inactive)	2.94 µM (inactive)	2.36 µM (inactive)	0.762 µM (active)	1.82 µM (inactive)	1.82 µM (inactive)	4.09 µM (inactive)	0.213 µM (active)	0.966 µM (active)	1.66 µM (inactive)	2.26 µM (inactive)	1.53 µM (inactive)	3.44 µM (inactive)
CC(=O)OCC1OC(n2ncc(=O)[nH]c2=O)C(OC(C)=O)C1OC(C)=O (configuration not stated)	6.3 µM (inactive)	5.27 µM (inactive)	> 100 µM (inactive)	–	19.3 µM (inactive)	1.09 µM (active)	26.1 µM (inactive)	21.7 µM (inactive)	–	68.5 µM (inactive)	17.8 µM (inactive)	32.4 µM (inactive)	40.3 µM (inactive)	5.36 µM (inactive)	0.718 µM (active)	–	32.3 µM (inactive)	4.04 µM (inactive)	14.7 µM (inactive)
O=C1CSC(c2ccc(Cl)cc2)N1c1ccc(-c2ccc(-n3c(-c4ccccc4)nc4ccccc4c3=O)cc2)cc1 (configuration not stated)	17.7 µM (inactive)	37.5 µM (inactive)	69 µM (inactive)	56.9 µM (inactive)	24.2 µM (inactive)	21.8 µM (inactive)	93.5 µM (inactive)	61.4 µM (inactive)	38.5 µM (inactive)	34.1 µM (inactive)	19 µM (inactive)	27.4 µM (inactive)	4 µM (inactive)	28.2 µM (inactive)	30.6 µM (inactive)	> 100 µM (inactive)	32.1 µM (inactive)	27.4 µM (inactive)	54.8 µM (inactive)
OCC1C(OCc2ccccc2)C(OCc2ccccc2)C(OCc2ccccc2)CN1Cc1ccccc1 (configuration not stated)	31.3 µM (inactive)	30.3 µM (inactive)	42.8 µM (inactive)	84.9 µM (inactive)	–	27.3 µM (inactive)	28.2 µM (inactive)	33 µM (inactive)	96.8 µM (inactive)	15.4 µM (inactive)	35.5 µM (inactive)	24.8 µM (inactive)	13 µM (inactive)	8.83 µM (inactive)	28.8 µM (inactive)	19.6 µM (inactive)	35.4 µM (inactive)	26.3 µM (inactive)	29.9 µM (inactive)
COc1ccc(C2(O)C(S(=O)(=O)c3ccc(C)cc3)=Cc3ccc(OC)cc32)cc1 (configuration not stated)	> 100 µM (inactive)	28.2 µM (inactive)	46.5 µM (inactive)	78.2 µM (inactive)	> 100 µM (inactive)	41.2 µM (inactive)	> 100 µM (inactive)	21.2 µM (inactive)	43.7 µM (inactive)	> 100 µM (inactive)	> 100 µM (inactive)	> 100 µM (inactive)	25.9 µM (inactive)	> 100 µM (inactive)	> 100 µM (inactive)	> 100 µM (inactive)	> 100 µM (inactive)	41 µM (inactive)	44.3 µM (inactive)
CC(C)=CC(=O)c1[nH]c2ccccc2c1CC(=O)NCCc1c[nH]cn1	> 100 µM (inactive)	> 100 µM (inactive)	> 100 µM (inactive)	> 100 µM (inactive)	> 100 µM (inactive)	> 100 µM (inactive)	> 100 µM (inactive)	–	> 100 µM (inactive)	> 100 µM (inactive)	> 100 µM (inactive)	> 100 µM (inactive)	> 100 µM (inactive)	> 100 µM (inactive)	> 100 µM (inactive)	> 100 µM (inactive)	> 100 µM (inactive)	> 100 µM (inactive)	> 100 µM (inactive)
CCCCCCNCCCNc1c2ccccc2nc2cccc([N+](=O)[O-])c12	0.0193 µM (active)	0.0188 µM (active)	0.0621 µM (active)	0.0246 µM (active)	0.0103 µM (active)	0.0118 µM (active)	0.00665 µM (active)	0.0245 µM (active)	0.0845 µM (active)	0.0116 µM (active)	0.00873 µM (active)	0.0103 µM (active)	0.0485 µM (active)	0.0256 µM (active)	0.0229 µM (active)	0.101 µM (active)	0.0118 µM (active)	0.00948 µM (active)	0.012 µM (active)
O=C1NC(N2CCCC(CO)C2)=N/C1=C\c1cccs1 (configuration not stated)	> 100 µM (inactive)	> 100 µM (inactive)	> 100 µM (inactive)	> 100 µM (inactive)	> 100 µM (inactive)	> 100 µM (inactive)	> 100 µM (inactive)	> 100 µM (inactive)	> 100 µM (inactive)	> 100 µM (inactive)	> 100 µM (inactive)	> 100 µM (inactive)	98.2 µM (inactive)	> 100 µM (inactive)	> 100 µM (inactive)	> 100 µM (inactive)	> 100 µM (inactive)	> 100 µM (inactive)	> 100 µM (inactive)
COC(=O)C1=C(C(=O)OC)C(OO)(c2ccccc2)OC1=O (configuration not stated)	31.3 µM (inactive)	> 100 µM (inactive)	> 100 µM (inactive)	> 100 µM (inactive)	50.2 µM (inactive)	37.4 µM (inactive)	> 100 µM (inactive)	–	> 100 µM (inactive)	> 100 µM (inactive)	35 µM (inactive)	> 100 µM (inactive)	50.7 µM (inactive)	38.5 µM (inactive)	55.6 µM (inactive)	> 100 µM (inactive)	91.4 µM (inactive)	36.5 µM (inactive)	> 100 µM (inactive)
Cn1c(SCc2ccc(F)cc2)nnc1C12CC3CC(CC(C3)C1)C2	22.2 µM (inactive)	50.8 µM (inactive)	–	37.1 µM (inactive)	11.9 µM (inactive)	35.2 µM (inactive)	39.2 µM (inactive)	47.3 µM (inactive)	53.5 µM (inactive)	50.6 µM (inactive)	12.7 µM (inactive)	22.5 µM (inactive)	37.8 µM (inactive)	24.2 µM (inactive)	17.1 µM (inactive)	33.2 µM (inactive)	38.5 µM (inactive)	35.8 µM (inactive)	31.8 µM (inactive)
